The results in this text go back to patent US9682092B2, “Boron-containing small molecules as anti-inflammatory agents” (ANACOR PHARMACEUTICALS, INC., priority 2006, dated 2017).

As a reminder, the melting point is the temperature, or range, at which the solid turns liquid.

Take `N#Cc1ccc(Oc2ccc(B(O)O)cc2)cc1`: the melting point fell in the range of 194 to 198 °C.
`COc1ccc2c(c1)COB2O` [C7, 1,3-Dihydro-1-hydroxy-5-methoxy-2,1-benzoxaborole] yielded a melting point of 102 to 104 °C.
Consider `Cc1ccc2c(c1)COB2O` [C8, 1,3-Dihydro-1-hydroxy-5-methyl-2,1-benzoxaborole], for which the melting point is 124 to 128 °C.
For `OB1OCc2ccc(F)cc21` [C13, 1,3-Dihydro-6-fluoro-1-hydroxy-2,1-benzoxaborole] the value was 110 to 117.5 °C; for `N#Cc1cccc(Oc2ccc3c(c2)B(O)OC3)c1` [C19, 6-(3-Cyanophenoxy)-1,3-dihydro-1-hydroxy-2,1-benzoxaborole], 146 to 149 °C; for `OB1OCc2ccc(Oc3ccc(Cl)cc3)cc21` [C20, 6-(4-Chlorophenoxy)-1,3-dihydro-1-hydroxy-2,1-benzoxaborole], 119 to 130 °C.
In the case of `OB1OCc2ccc(Oc3ccccc3)cc21` [C21, 6-Phenoxy-1,3-dihydro-1-hydroxy-2,1-benzoxaborole] it was 95 to 99 °C.
In the case of `OB1OCc2ccc(Sc3ccccc3)cc21` [C28, 6-Phenylthio-1,3-dihydro-1-hydroxy-2,1-benzoxaborole] it was 121 to 124 °C.
The compound `OB1OCc2ccc(Oc3ccc(OC(F)(F)F)cc3)cc21` [C29, 6-(4-trifluoromethoxyphenoxy)-1,3-dihydro-1-hydroxy-2,1-benzoxaborole] yielded a melting point of 97 to 101 °C.
In the case of `CN(c1ccc2c(c1)COB2O)S(=O)(=O)c1ccccc1` [C30, 5-(N-Methyl-N-phenylsulfonylamino)-1,3-dihydro-1-hydroxy-2,1-benzoxaborole] it was 85 to 95 °C; in that of `COc1ccc(Oc2ccc3c(c2)B(O)OC3)cc1` [C31, 6-(4-Methoxyphenoxy)-1,3-dihydro-1-hydroxy-2,1-benzoxaborole], 126 to 129 °C.
`COc1ccc(Sc2ccc3c(c2)B(O)OC3)cc1` [C32, 6-(4-Methoxyphenylthio)-1,3-dihydro-1-hydroxy-2,1-benzoxaborole]: the melting point lay within 95 to 100 °C.
On to `COc1ccc(S(=O)(=O)c2ccc3c(c2)B(O)OC3)cc1` [C33, 6-(4-Methoxyphenylsulfonyl)-1,3-dihydro-1-hydroxy-2,1-benzoxaborole], for which the melting point fell in the range of 180 to 192 °C.
In the case of `CCOC(=O)COc1ccc2c(c1)COB2O` [C41, Ethyl 2-(1-hydroxy-1,3-dihydrobenzo[c][1,2]oxaborol-5-yloxy)acetate] it was 134 to 137 °C.
For `O=C(O)COc1ccc2c(c1)COB2O` [C42, 2-(1-hydroxy-1,3-dihydrobenzo[c][1,2]oxaborol-5-yloxy)acetic acid] the value was 163 to 166 °C; for `OB1OCc2ccc(Sc3cccs3)cc21` [C43, 6-(thiophen-2-ylthio)benzo[c][1,2]oxaborol-1(3H)-ol], 99 to 104 °C.
The compound `OB1OCc2ccc(Sc3ccc(F)cc3)cc21` [C44, 6-(4-fluorophenylthio)benzo[c][1,2]oxaborol-1(3H)-ol] returned a melting point of 135 to 138 °C.
In the case of `CCCCC(=O)c1cccc(COc2ccc3c(c2)COB3O)c1` [C45, 1-(3-((1-hydroxy-1,3-dihydrobenzo[c][1,2]oxaborol-5-yloxy)methyl)phenyl)pentan-1-one], the melting point lay within 96 to 98 °C.
For the compound `O=C(COc1ccc2c(c1)COB2O)N1CCCCC1` [C46, 2-(1-hydroxy-1,3-dihydrobenzo[c][1,2]oxaborol-5-yloxy)-1-(piperidin-1-yl)ethanone], the melting point lay within 158 to 163 °C.
For `O=C(COc1ccc2c(c1)COB2O)N1CCN(c2ncccn2)CC1` [C47, 2-(1-hydroxy-1,3-dihydrobenzo[c][1,2]oxaborol-5-yloxy)-1-(4-(pyrimidin-2-yl)piperazin-1-yl)ethanone] the value was 190 to 195 °C; for `OB1OCc2ccc(N3CCN(c4ccccn4)CC3)cc21` [C48, 6-(4-(pyridin-2-yl)piperazin-yl)benzo[c][1,2]oxaborol-1(3H)-ol], 135 to 138 °C; for `CN(C)c1ccc2c(c1)B(O)OC2` [C51, 6-(dimethylamino)benzo[c][1,2]oxaborol-1(3H)-ol], 120 to 123 °C.
As to `O=C(Nc1ccc2c(c1)B(O)OC2)c1ccccc1` [C52, N-(1-hydroxy-1,3-dihydrobenzo[c][1,2]oxaborol-6-yl)benzamide], the melting point is 186 to 193 °C.
For `OB1OCc2ccc(N3CCN(c4ccccc4)CC3)cc21` [C53, 6-(4-phenylpiperazin-1-yl)benzo[c][1,2]oxaborol-1(3H)-ol] the value was 159 to 161 °C; for `OB1OCc2ccc(-n3ccc4ccccc43)cc21` [C55, 6-(1H-indol-1-yl)benzo[c][1,2]oxaborol-1(3H)-ol], 135 to 140 °C; for `OB1OCc2ccc(N3CCOCC3)cc21` [C56, 6-morpholinobenzo[c][1,2]oxaborol-1(3H)-ol], 128 to 132 °C.
`O=[N+]([O-])c1cc2c(cc1F)COB2O` [C58, 5-fluoro-6-nitrobenzo[c][1,2]oxaborol-1(3H)-ol] displayed a melting point of 162 to 167 °C.
As for `OCc1cc2c(cc1Br)COB2O` [C59, 5-bromo-6-(hydroxymethyl)benzo[c][1,2]oxaborol-1(3H)-ol], the melting point is above 257 °C.
Regarding `OB1OCc2cc3c(cc21)COB3O` [C60, 3,7-dihydro-1,5-dihydroxy-1H,3H-Benzo[1,2-c:4,5-c′]bis[1,2]oxaborole], the melting point was above 250 °C.
For `O=S(=O)(Nc1ccc2c(c1)B(O)OC2)c1ccccc1` [C62, N-(1-hydroxy-1,3-dihydrobenzo[c][1,2]oxaborol-6-yl)benzenesulfonamide] the value was 175 to 184 °C; for `CC(=O)Nc1ccc2c(c1)B(O)OC2` [C63, N-(1-hydroxy-1,3-dihydrobenzo[c][1,2]oxaborol-6-yl)acetamide], 176 to 185 °C; for `OCc1cccc2c1B(O)OC2` [C64, 7-(hydroxymethyl)benzo[c][1,2]oxaborol-1(3H)-ol], 241 to 250 °C.
For `Cc1cccc2c1B(O)OC2` [C65, 7-methylbenzo[c][1,2]oxaborol-1(3H)-ol] the value was 107 to 111 °C.
The compound `OB1OCc2ccc(-n3cc(Sc4ccccc4)c4ccccc43)cc21` [C66, 6-(3-(phenylthio)-1H-indol-1-yl)benzo[c][1,2]oxaborol-1(3H)-ol] yielded a melting point of 159 to 163 °C.
The compound `N#CCCSc1cn(-c2ccc3c(c2)B(O)OC3)c2ccccc12` [C67, 3-(1-(1-hydroxy-1,3-dihydrobenzo[c][1,2]oxaborol-6-yl)-1H-indol-3-ylthio)propanenitrile] returned a melting point of 135 to 141 °C.
Consider `COc1ccc2c(ccn2-c2ccc3c(c2)B(O)OC3)c1` [C68, 6-(5-methoxy-1H-indol-1-yl)benzo[c][1,2]oxaborol-1(3H)-ol], for which the melting point is 120 to 124 °C.
For `OB1OCc2cc3c(cc21)OCO3` [C69, 5,6-methylenedioxybenzo[c][1,2]oxaborol-1(3H)-ol.] the value was 185 to 189 °C; for `Nc1cc2c(cc1F)COB2O` [C70, 6-amino-5-fluorobenzo[c][1,2]oxaborol-1(3H)-ol], 142 to 145 °C.
